# Test results as given in US10047076B2, “Halogen-substituted compounds” (BAYER CROPSCIENCE AKTIENGESELLSCHAFT, priority 2014, dated 2018).
# Legend:
# Boophilus microplus = Boophilus microplus injection test; format: in vivo; details: 20 μg/animal, engorged adult female ticks, after 7 days
# Experimental: (§1) Solvent: dimethyl sulphoxide
# 1 μl of the active compound solution is injected into the abdomen of 5 engorged adult female cattle ticks (Boophilus microplus). The animals are transferred into dishes and kept in a climate-controlled room.
# (§2) Efficacy is assessed after 7 days by laying of fertile eggs. Eggs which are not visibly fertile are stored in a climate-controlled cabinet until the larvae hatch after about 42 days. An efficacy of 100% means that none of the ticks has laid any fertile eggs; 0% means that all the eggs are fertile.
# Tetranychus urticae [1] = test: Tetranychus urticae spray test, OP-resistant (bean leaf discs); format: in vivo; details: 100 g/ha, after 6 days
# Experimental: (§3) Solvent: 78.0 parts by weight of acetone
# (§4) After 6 days, the efficacy in % is determined.
# [2] = system: cattle ticks (Boophilus microplus) Parkhurst strain, SP-resistant; test: Boophilus microplus dip test; format: in vivo; details: 100 ppm, engorged adult female ticks, after 7 days
# Experimental: Test animals: cattle ticks (Boophilus microplus) Parkhurst strain, SP-resistant
# as §1
# 10 mg of active compound are dissolved in 0.5 ml of dimethyl sulphoxide. For the purpose of producing a suitable formulation, the active compound solution is diluted with water to the concentration desired in each case.
# This active compound preparation is pipetted into tubes. 8-10 engorged adult female cattle ticks (Boophilus microplus) are transferred into a further tube with holes. The tube is immersed into the active compound preparation, and all the ticks are completely wetted. After the liquid has run out, the ticks are transferred on filter discs into plastic dishes and stored in a climate-controlled room.
# as §2
# Ctenocephalides felis [3] = test: Ctenocephalides felis in vitro contact test with adult cat fleas; format: in vivo; details: application rate 5 μg/cm^2 (500 g/ha), after 48 h, adult cat fleas dead or moribund
# Experimental: (§5) For the coating of the test tubes, 9 mg of active compound are first dissolved in 1 ml of acetone p.a. and then diluted to the desired concentration with acetone p.a. 250 μl of the solution are distributed homogeneously on the inner walls and the base of a 25 ml test tube by turning and rocking on an orbital shaker (rocking rotation at 30 rpm for 2 h). With 900 ppm active compound solution and internal surface 44.7 cm^2, given homogeneous distribution, an area-based dose of 5 μg/cm^2 is achieved.
# After the solvent has evaporated off, the tubes are populated with 5-10 adult cat fleas (Ctenocephalides felis), sealed with a perforated plastic lid and incubated in a horizontal position at room temperature and ambient humidity. After 48 h, efficacy is determined. To this end, the test tubes are stood upright and the fleas are knocked to the base of the tube. Fleas which remain motionless at the base or move in an uncoordinated manner are considered to be dead or moribund.
# 100% efficacy means that all the fleas were dead or moribund. 0% efficacy means that no fleas were harmed.
# [4] = log P determination by HPLC on reversed-phase column (C18), EEC Directive 79/831 Annex V.A8, acidic (formic acid); format: physicochemical; details: HPLC method a), acetonitrile/water with formic acid
# Experimental: ^1 The stated mass is the peak of the isotope pattern of the [M+H]^+ ion of the highest intensity; if the [M-H]^- ion was detected, the stated mass is identified with ^2. ^2 The stated mass is the peak of the isotope pattern of the [M-H]^- ion of the highest intensity. ^a) Note regarding the determination of the log P values and mass detection: The determination of the given log P values was carried out in accordance with EEC Directive 79/831 Annex V.A8 by HPLC (High Performance Liquid Chromatography) on a reversed-phase column (C18). […] Mass detection is effected by means of an […] system. ^b) Note regarding the determination of the retention time and mass detection: The stated retention times were determined on a reversed-phase column (C18) Shimadzu LCMS 2020; 50*3.0 Shimadzu shim-pack XR-ODS 2.2 micron; mobile phase A: water (0.05% TFA); mobile phase B: acetonitrile; linear gradient from 5% acetonitrile to 95% acetonitrile in 6.00 min, then 95% acetonitrile for a further 1.1 min; oven temperature 40° C.; flow rate: 1.0 ml/min. ^c) Note regarding the determination of the retention time and mass detection: Instrument: Waters ACQUITY SQD UPLC system; column. Waters Acquity UPLC HSS T3 1.8μ 50×1 mm; mobile phase A: 1 l of water+0.25 ml of 99% strength formic acid, mobile phase B: 1 l of acetonitrile+0.25 ml of 99% strength formic acid; gradient: 0.0 min 90% A→1.2 min 5% A→2.0 min 5% A oven: 50° C.; flow rate: 0.40 ml/min; UV detection: 208-400 nm. ^d) Note regarding the determination of the retention time and mass detection: […] The determination of the given log P values was carried out in accordance with EEC Directive 79/831 Annex V.A8 by HPLC (High Performance Liquid Chromatography) on a reversed-phase column (C18). […] Mass detection is effected by means of an […] system.
# Rhipicephalus sanguineus = Rhipicephalus sanguineus in vitro contact test with adult brown dog ticks; format: in vivo; details: application rate 5 μg/cm^2 (500 g/ha), after 48 h, adult ticks dead or moribund
# Experimental: as §5
# After the solvent has evaporated off, the tubes are populated with 5-10 adult dog ticks (Rhipicephalus sanguineus), sealed with a perforated plastic lid and incubated in a horizontal position in the dark at room temperature and ambient humidity. After 48 h, efficacy is determined. To this end, the ticks are knocked to the floor of the tube and incubated on a hotplate at 45-50° C. for not more than 5 min. Ticks which remain motionless on the floor or move in such an uncoordinated manner that they are unable to deliberately avoid the heat by climbing upwards are considered to be dead or moribund.
# An efficacy of 100% means that all the ticks were dead or moribund. 0% efficacy means that none of the ticks had been harmed.
# Myzus persicae = Myzus persicae spray test; format: in vivo; details: 100 g/ha, Chinese cabbage leaf discs, after 6 days
# Experimental: Solvent: 78 parts by weight of acetone
# as §4
# Spodoptera frugiperda = Spodoptera frugiperda spray test; format: in vivo; details: 100 g/ha, caterpillars on maize leaf discs, after 7 days
# Description: as §3
# Ctenocephalides felis [5] = test: Ctenocephalides felis oral test; format: in vivo; details: 100 ppm in citrated cattle blood, after 2 days
# Description: as §1
# Dilution with citrated cattle blood gives the desired concentration.
# About 20 unfed adult cat fleas (Ctenocephalides felis) are placed into a chamber which is closed at the top and bottom with gauze. A metal cylinder whose bottom end is closed with parafilm is placed onto the chamber. The cylinder contains the blood/active compound preparation, which can be imbibed by the fleas through the parafilm membrane.
# Lucilia cuprina = Lucilia cuprina test; format: in vivo; details: 100 ppm, L1 larvae, after 2 days
# Experimental: as §1
# About 20 L1 larvae of the Australian sheep blowfly (Lucilia cuprina) are transferred into a test vessel containing minced horsemeat and the active compound preparation of the desired concentration.
# After 2 days, the kill in % is determined.
# Amblyomma hebraeum = test: Amblyomma hebaraeum test (AMBYHE), tick nymphs immersion; format: in vivo; details: 100 ppm, after 42 days
# Experimental: as §1
# To produce a suitable active compound formulation, 10 mg of active compound are mixed with 0.5 ml of dimethyl sulphoxide, and the concentrate is diluted with water to the desired concentration.
# Tick nymphs (Amblyomma hebraeum) are placed into perforated plastic beakers and immersed in the desired concentration for one minute. The ticks are transferred on filter paper into a Petri dish and stored in a climate-controlled cabinet.
# Phaedon cochleariae = Phaedon cochleariae spray test; details: 100 g/ha, larvae on Chinese cabbage leaf discs, after 7 days
# Musca domestica = Musca domestica test; format: in vivo; details: 100 ppm, adult houseflies, after 2 days
# Description: as §1
# Vessels containing a sponge treated with sugar solution and the active compound preparation of the desired concentration are populated with 10 adult houseflies (Musca domestica).
# Tetranychus urticae [6] = test: Tetranychus urticae spray test, OP-resistant (bean plants); format: in vivo; details: 20 ppm, after 7 days
Structure (SMILES),efficacy (laying of fertile eggs) (Boophilus microplus) [%],efficacy (Tetranychus urticae [1]) [%],efficacy (laying of fertile eggs) [2] [%],efficacy (Ctenocephalides felis [3]) [%],logP [4],efficacy (Rhipicephalus sanguineus) [%],efficacy (Myzus persicae) [%],efficacy (Spodoptera frugiperda) [%],efficacy (kill in %) (Ctenocephalides felis [5]) [%],efficacy (kill in %) (Lucilia cuprina) [%],efficacy (kill in %) (Amblyomma hebraeum) [%],efficacy (Phaedon cochleariae) [%],chromatographic logP [4],efficacy (kill in %) (Musca domestica) [%],efficacy (Tetranychus urticae [6]) [%]
Cn1nc(C(F)(F)C(F)(F)F)c(C(F)(F)F)c1-c1csc(-c2ccc(Cl)c(C(=O)NC3CC3)c2)c1 [Iaf-1],100,100,100,100,4.31,100,90,100,100,100,100,100,–,–,–
"Cn1nc(C(F)(F)C(F)(F)F)c(C(F)(F)F)c1-c1cc(-c2ccc(Cl)c(C(=O)NC3CC3)c2)no1 [Iap-1, 2-chloro-N-cyclopropyl-5-{5-[1-methyl-3-(pentafluoroethyl)-4-(trifluoromethyl)-1H-pyrazol-5-yl]-1,2-oxazol-3-yl}benzamide]",100,–,100,100,–,100,–,100,100,100,100,100,4.06,100,100
